Results on 21 compounds are retold here after US10030020B2, “Spirocycle compounds and methods of making and using same” (Abide Therapeutics, Inc., priority 2016, dated 2018).

A word on the IC50: it is the concentration needed to halve the response being measured. A low value points to greater potency in that assay.

Like-named read-outs stand apart in the source and are kept apart here. Where only a bound is given, the exact number is not on record here.

The target in test [1] is T1, MAGL (Mus musculus (Mouse), UniProt O35678). As to the kind of experiment: In vitro competitive activity-based protein profiling (mouse brain membrane fraction or cell lysates), MAGL band. The test is classed as biochemical. Particulars: for inhibition at 1 µM: read-out: MAGL % Inh 1 μM (mouse); for IC50: competitive ABPP. The method, then:
In Vitro Competitive Activity-Based Protein Profiling.
Proteomes (mouse brain membrane fraction or cell lysates) (50 μL, 1.0 mg/mL total protein concentration) were preincubated with varying concentrations of inhibitors at 37° C. After 30 min, FP—Rh (1.0 μL, 50 μM in DMSO) was added and the mixture was incubated for another 30 min at 37° C. Reactions were quenched with SDS loading buffer (50 μL-4×) and run on SDS-PAGE.

Test [2] has as its target T2, ABHD6 (Mus musculus (Mouse), UniProt Q8R2Y0). As to the kind of experiment: In vitro competitive activity-based protein profiling (mouse brain membrane fraction or cell lysates), ABHD6 band. It counts as biochemical. Particulars: for inhibition at 1 µM: read-out: ABHD6 % Inh 1 μM (mouse); for IC50: competitive ABPP. In a few lines:
(§1)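 Competitive ABPP: proteome 1.0 mg/mL protein + inhibitor, 30 min, 37° C; FP-Rh probe (stock 50 μM in DMSO) added, 30 min, 37° C; SDS quench, SDS-PAGE, fluorescent band intensity read.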

The target in test [3] is T3, FAAH (Mus musculus (Mouse), UniProt O08914). As to the kind of experiment: In vitro competitive activity-based protein profiling (mouse brain membrane fraction or cell lysates), FAAH band. The test is classed as biochemical. Particulars: for inhibition at 1 µM: read-out: FAAH % Inh 1 μM (mouse); for IC50: competitive ABPP. The gist of the method: as §1
T3 sequence (O08914 whole entry): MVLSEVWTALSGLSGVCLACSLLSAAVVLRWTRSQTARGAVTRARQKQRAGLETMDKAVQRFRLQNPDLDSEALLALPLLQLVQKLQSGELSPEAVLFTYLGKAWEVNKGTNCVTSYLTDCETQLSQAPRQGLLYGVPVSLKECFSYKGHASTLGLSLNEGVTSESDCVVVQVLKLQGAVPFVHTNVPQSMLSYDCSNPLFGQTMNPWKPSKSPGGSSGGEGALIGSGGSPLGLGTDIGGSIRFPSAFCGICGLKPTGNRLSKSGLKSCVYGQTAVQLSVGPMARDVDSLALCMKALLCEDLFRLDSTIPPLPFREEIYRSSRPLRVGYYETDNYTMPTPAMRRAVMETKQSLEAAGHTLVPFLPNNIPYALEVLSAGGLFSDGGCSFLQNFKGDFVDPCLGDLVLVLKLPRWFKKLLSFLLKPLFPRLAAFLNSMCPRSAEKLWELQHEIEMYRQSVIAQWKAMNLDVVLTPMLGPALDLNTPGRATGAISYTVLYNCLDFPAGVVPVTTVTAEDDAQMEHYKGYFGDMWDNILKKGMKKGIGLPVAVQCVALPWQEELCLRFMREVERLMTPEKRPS
Test [4] deals with T1, MAGL. As to the kind of experiment: Mouse brain proteomes from inhibitor treated mice (oral gavage, sacrificed 4 h after administration, ABPP analysis). Particulars: 5 mg/kg oral gavage. It counts as in vivo, mouse (C57Bl/6J). Here is the method: (§2) Preparation of Mouse Brain Proteomes from Inhibitor Treated Mice.
(§3) Inhibitors were administered to wild-type C57Bl/6J by oral gavage in a vehicle, e.g. PEG400/Ethanol/PBS (7/2/1). Each animal was sacrificed 4 h following administration and brain proteomes were prepared and analyzed according to previously established methods (See Niphakis, M. J., et al. (2011) ACS Chem. Neurosci. and Long, J. Z., et al. Nat. Chem. Biol. 5:37-44). Data from this assay is shown in Table 2 (% inhibition at 5 mg/kg).

The target in test [5] is T3, FAAH. As to the kind of experiment: Mouse brain proteomes from inhibitor treated mice (oral gavage, sacrificed 4 h after administration, ABPP analysis), FAAH. The test is classed as in vivo, mouse (C57Bl/6J). Particulars: 5 mg/kg oral gavage. Here is the method: as §2, §3
For test [6], the target named is T2, ABHD6. As to the kind of experiment: Mouse brain proteomes from inhibitor treated mice (oral gavage, sacrificed 4 h after administration, ABPP analysis), ABHD6. The test is classed as in vivo, mouse (C57Bl/6J). Particulars: 5 mg/kg oral gavage. Here is the method: as §2, §3

T1 sequence (O35678 whole entry): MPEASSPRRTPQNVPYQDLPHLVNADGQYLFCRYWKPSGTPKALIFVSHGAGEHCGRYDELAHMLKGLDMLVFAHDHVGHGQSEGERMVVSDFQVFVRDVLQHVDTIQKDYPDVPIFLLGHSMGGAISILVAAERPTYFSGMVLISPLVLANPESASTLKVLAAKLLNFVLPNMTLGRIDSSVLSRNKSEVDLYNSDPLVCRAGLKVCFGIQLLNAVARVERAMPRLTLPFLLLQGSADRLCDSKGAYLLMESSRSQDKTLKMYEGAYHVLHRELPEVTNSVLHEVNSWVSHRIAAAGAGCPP
T2 sequence (Q8R2Y0 whole entry): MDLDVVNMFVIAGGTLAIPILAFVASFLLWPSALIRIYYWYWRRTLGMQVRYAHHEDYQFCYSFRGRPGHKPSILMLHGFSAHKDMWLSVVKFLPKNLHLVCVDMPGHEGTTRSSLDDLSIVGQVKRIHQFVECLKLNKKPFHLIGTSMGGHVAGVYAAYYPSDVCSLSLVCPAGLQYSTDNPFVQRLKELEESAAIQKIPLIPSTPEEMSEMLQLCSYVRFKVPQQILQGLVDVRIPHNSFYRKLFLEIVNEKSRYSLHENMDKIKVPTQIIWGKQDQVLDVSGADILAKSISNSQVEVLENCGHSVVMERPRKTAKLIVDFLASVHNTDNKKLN

`CCOc1ccc(CN2CCCC23CCN(C(=O)OC(C(F)(F)F)C(F)(F)F)CC3)cc1` [Example 4, 1,1,1,3,3,3-Hexafluoropropan-2-yl 1-(4-ethoxybenzyl)-1,8-diazaspiro[4.5]decane-8-carboxylate]: the figures for the inhibition at 1 µM at MAGL [1] (mouse proteome), at ABHD6 [2] (mouse proteome) and at FAAH [3] (mouse proteome) were over 75%, under 25% and under 25%, respectively. In addition, the IC50 at MAGL [1] (mouse proteome) is 100 to 1000 nM; on ABHD6 [2] (mouse proteome) it was over 1000 nM; at FAAH [3] (mouse proteome), over 1000 nM. Besides, the “MAGL % Inh 5 mg/kg (mouse)” value on MAGL [4] was “### (### is ≥75%)”. Further, at FAAH [5], the “FAAH % Inh 5 mg/kg (mouse)” value was “# (# is <25%)”. Further, the “ABHD6 % Inh 5 mg/kg (mouse)” value on ABHD6 [6] is listed as “# (# is <25%)”.
Regarding `CCOc1cccc(CN2CCCC23CCN(C(=O)OC(C(F)(F)F)C(F)(F)F)CC3)c1` [Example 5, 1,1,1,3,3,3-Hexafluoropropan-2-yl 1-(3-ethoxybenzyl)-1,8-diazaspiro[4.5]decane-8-carboxylate], the inhibition at 1 µM was over 75% on MAGL [1] (mouse proteome), under 25% at ABHD6 [2] (mouse proteome) and under 25% at FAAH [3] (mouse proteome). In addition, the IC50 is under 100 nM on MAGL [1] (mouse proteome), over 1000 nM on ABHD6 [2] (mouse proteome) and over 1000 nM on FAAH [3] (mouse proteome). On MAGL [4], the “MAGL % Inh 5 mg/kg (mouse)” value is listed as “### (### is ≥75%)”. For the same compound, the “FAAH % Inh 5 mg/kg (mouse)” value on FAAH [5] is “# (# is <25%)”. Besides, the “ABHD6 % Inh 5 mg/kg (mouse)” value at ABHD6 [6] was “## (## is equal to or greater than 25% but less than 75%)”.
On to `COc1cccc(CN2CCCC23CCN(C(=O)OC(C(F)(F)F)C(F)(F)F)CC3)c1Cl` [Example 7, 1,1,1,3,3,3-Hexafluoropropan-2-yl 1-(2-chloro-3-methoxybenzyl)-1,8-diazaspiro[4.5]decane-8-carboxylate], for which the IC50 on MAGL [1] (mouse proteome) was under 100 nM; on ABHD6 [2] (mouse proteome) it was over 1000 nM; on FAAH [3] (mouse proteome) it was over 1000 nM. For the same compound, the “MAGL % Inh 5 mg/kg (mouse)” value on MAGL [4] is “### (### is ≥75%)”. In addition, the “FAAH % Inh 5 mg/kg (mouse)” value at FAAH [5] is “### (### is ≥75%)”. In addition, the “ABHD6 % Inh 5 mg/kg (mouse)” value on ABHD6 [6] is listed as “# (# is <25%)”.
In the case of `COc1ccc(F)cc1CN1CCCC12CCN(C(=O)OC(C(F)(F)F)C(F)(F)F)CC2` [Example 8, 1,1,1,3,3,3-Hexafluoropropan-2-yl 1-(5-fluoro-2-methoxybenzyl)-1,8-diazaspiro[4.5]decane-8-carboxylate], the IC50 is under 100 nM on MAGL [1] (mouse proteome), over 1000 nM at ABHD6 [2] (mouse proteome) and over 1000 nM at FAAH [3] (mouse proteome). At MAGL [4], the “MAGL % Inh 5 mg/kg (mouse)” value is reported as “### (### is ≥75%)”. Also, the “FAAH % Inh 5 mg/kg (mouse)” value at FAAH [5] is given as “## (## is equal to or greater than 25% but less than 75%)”. At ABHD6 [6], the “ABHD6 % Inh 5 mg/kg (mouse)” value is recorded as “## (## is equal to or greater than 25% but less than 75%)”.
Regarding `COc1cc(Cl)ccc1CN1CCCC12CCN(C(=O)OC(C(F)(F)F)C(F)(F)F)CC2` [Example 9, 1,1,1,3,3,3-Hexafluoropropan-2-yl 1-(4-chloro-2-methoxybenzyl)-1,8-diazaspiro[4.5]decane-8-carboxylate], the figures for the IC50 at MAGL [1] (mouse proteome), at ABHD6 [2] (mouse proteome) and on FAAH [3] (mouse proteome) were under 100 nM, over 1000 nM and over 1000 nM, respectively. Further, the “MAGL % Inh 5 mg/kg (mouse)” value at MAGL [4] is “### (### is ≥75%)”. In addition, the “FAAH % Inh 5 mg/kg (mouse)” value on FAAH [5] is given as “# (# is <25%)”. Besides, at ABHD6 [6], the “ABHD6 % Inh 5 mg/kg (mouse)” value was “# (# is <25%)”.
In the case of `CC1(C)CC2(CCN(C(=O)OC(C(F)(F)F)C(F)(F)F)CC2)CN1Cc1cccc(OC(F)(F)F)c1N1CCOCC1` [Example 190, 1,1,1,3,3,3-Hexafluoropropan-2-yl 3,3-dimethyl-2-(2-morpholino-3-(trifluoromethoxy)benzyl)-2,8-diazaspiro[4.5]decane-8-carboxylate], the inhibition at 1 µM at MAGL [1] (mouse proteome) was over 75%; on ABHD6 [2] (mouse proteome) it was under 25%; at FAAH [3] (mouse proteome), under 25%. In addition, the IC50 was under 100 nM at MAGL [1] (mouse proteome), over 1000 nM on ABHD6 [2] (mouse proteome) and over 1000 nM at FAAH [3] (mouse proteome).
Regarding `CC1(C)CC2(CCN(C(=O)OC(C(F)(F)F)C(F)(F)F)CC2)CN1Cc1cccc(CN2CCOCC2)c1F` [Example 191, 1,1,1,3,3,3-Hexafluoropropan-2-yl 2-(2-fluoro-3-(morpholinomethyl)benzyl)-3,3-dimethyl-2,8-diazaspiro[4.5]decane-8-carboxylate], the inhibition at 1 µM on MAGL [1] (mouse proteome) is over 75%; on ABHD6 [2] (mouse proteome), 25 to 75%; at FAAH [3] (mouse proteome), under 25%. The IC50 is 100 to 1000 nM on MAGL [1] (mouse proteome), over 1000 nM on ABHD6 [2] (mouse proteome) and over 1000 nM on FAAH [3] (mouse proteome).
In the case of `CC1(C)CC2(CCN(C(=O)OC(C(F)(F)F)C(F)(F)F)CC2)CN1Cc1cc(CN2CCOCC2)ccc1OC(F)(F)F` [Example 192, 1,1,1,3,3,3-Hexafluoropropan-2-yl 3,3-dimethyl-2-(5-(morpholinomethyl)-2-(trifluoromethoxy)benzyl)-2,8-diazaspiro[4.5]decane-8-carboxylate], the inhibition at 1 µM at MAGL [1] (mouse proteome) was over 75%; at ABHD6 [2] (mouse proteome), 25 to 75%; on FAAH [3] (mouse proteome) it was under 25%. The values for the IC50 at MAGL [1] (mouse proteome), at ABHD6 [2] (mouse proteome) and on FAAH [3] (mouse proteome) were under 100 nM, 100 to 1000 nM and over 1000 nM, respectively.
Take `O=C(O)C1CCN(c2cc(CN3CCCC34CCN(C(=O)OC(C(F)(F)F)C(F)(F)F)CC4)cc(OC(F)(F)F)c2)CC1` [Example 207]: the inhibition at 1 µM is over 75% on MAGL [1] (mouse proteome), under 25% at ABHD6 [2] (mouse proteome) and under 25% on FAAH [3] (mouse proteome).
`O=C(O)[C@@H]1CCCN(c2cc(CN3CCC4(CCN(C(=O)OC(C(F)(F)F)C(F)(F)F)CC4)C3)cc(C(F)(F)F)c2)C1` [Example 208]: the inhibition at 1 µM on MAGL [1] (mouse proteome) is over 75%; on ABHD6 [2] (mouse proteome), at least 75%; on FAAH [3] (mouse proteome), under 25%.
The like results for `O=C(O)[C@@H]1CCCN(c2cc(CN3CCCC34CCN(C(=O)OC(C(F)(F)F)C(F)(F)F)CC4)cc(C(F)(F)F)c2)C1` [Example 212] were, in that order, over 75%, under 25% and under 25%.
The corresponding values for `O=C(O)[C@H]1CCCN(c2cc(CN3CCCC34CCN(C(=O)OC(C(F)(F)F)C(F)(F)F)CC4)cc(C(F)(F)F)c2)C1` [Example 213] are over 75%, under 25% and under 25%.
As for `O=C(O)C1COCCN1c1cc(C(F)(F)F)ccc1CN1CCC2(CCN(C(=O)OC(C(F)(F)F)C(F)(F)F)CC2)C1` (stereo not drawn) [Example 220], the values for the inhibition at 1 µM at MAGL [1] (mouse proteome), on ABHD6 [2] (mouse proteome) and on FAAH [3] (mouse proteome) were 25 to 75%, under 25% and under 25%, respectively.
As to `O=C(O)C1CCCCN1c1cc(C(F)(F)F)ccc1CN1CCC2(CCN(C(=O)OC(C(F)(F)F)C(F)(F)F)CC2)C1` (stereo not drawn) [Example 224], the inhibition at 1 µM at MAGL [1] (mouse) was 25 to 75%; at ABHD6 [2] (mouse), under 25%; on FAAH [3] (mouse), under 25%.
Consider `O=C(O)c1cccc(CN2CCCC23CCN(C(=O)OC(C(F)(F)F)C(F)(F)F)CC3)c1` [Example 242], for which the inhibition at 1 µM is 25 to 75% on MAGL [1] (mouse), 25 to 75% at ABHD6 [2] (mouse) and under 25% on FAAH [3] (mouse).
In the case of `O=C(O)c1ccc(CN2CCCC23CCN(C(=O)OC(C(F)(F)F)C(F)(F)F)CC3)cc1` [Example 250], the inhibition at 1 µM at MAGL [1] (mouse) was over 75%; at ABHD6 [2] (mouse), under 25%; at FAAH [3] (mouse), under 25%.
Regarding `O=C(O)c1ccccc1CN1CCCC12CCN(C(=O)OC(C(F)(F)F)C(F)(F)F)CC2` [Example 251], the inhibition at 1 µM at MAGL [1] (mouse) is 25 to 75%; at ABHD6 [2] (mouse) it was under 25%; at FAAH [3] (mouse) it was under 25%.
Consider `COc1ccc(CN2CCCC23CCN(C(=O)OC(C(F)(F)F)C(F)(F)F)CC3)cc1C(=O)O` [Example 254], for which the inhibition at 1 µM on MAGL [1] (mouse) was 25 to 75%; on ABHD6 [2] (mouse), under 25%; on FAAH [3] (mouse), under 25%.
`Cc1ccc(CN2CCCC23CCN(C(=O)OC(C(F)(F)F)C(F)(F)F)CC3)cc1C(=O)O` [Example 257]: the inhibition at 1 µM at MAGL [1] (mouse), on ABHD6 [2] (mouse) and on FAAH [3] (mouse) was under 25% throughout.
Consider `O=C(O)C1CCCCN1c1cc(C(F)(F)F)ccc1CN1CCCC12CCN(C(=O)OC(C(F)(F)F)C(F)(F)F)CC2` (stereo not drawn) [Example 259], for which the inhibition at 1 µM at MAGL [1] (mouse), at ABHD6 [2] (mouse) and on FAAH [3] (mouse) was under 25% each time.
As for `NC(=O)C1CCN(c2cc(C(F)(F)F)ccc2CN2CCCC23CCN(C(=O)OC(C(F)(F)F)C(F)(F)F)CC3)CC1` [Example 273], the inhibition at 1 µM was over 75% on MAGL [1] (mouse), 25 to 75% at ABHD6 [2] (mouse) and under 25% on FAAH [3] (mouse).
